Experimental data from patent publication US12649751B2 (Arcus Biosciences, Inc., priority 2022, dated 2026).
Where two headings read alike, the source gives them in different places.

How the values were obtained:
HPK1 = HPK1 (Homo sapiens, UniProt Q92918); assay: HPK1 Biochemical Assay (ADP-Glo luminescence; low ATP 10 μM or high ATP 200 μM)
[1] = system: p-SLP-76 (Ser376) in Jurkat cells; assay: pSLP76 Cellular Assay (AlphaLISA SureFire Ultra p-SLP-76 (Ser376), anti-CD3 activated Jurkat cells); format: cell-based; conditions: Homo sapiens, read-out: Cellular Potency
How it was run: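 Read-out is AlphaLISA p-SLP-76 (Ser376) signal at 570 nm in Jurkat lysates, with IC50 fitted by 4-parameter logistic. Cells were starved overnight, exposed 1 h at 37 °C to 22 twofold compound dilutions in HBSS, then activated 45 min with anti-CD3 (0.025 mg/ml stock added).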

[2] = 2 nM HPK1, 10 μM ATP, read-out: Biochemical Potency (low ATP)
[3] = Jurkat cells, anti-CD3 stimulation, pSLP76
[4] = HPK1 ADP-Glo assay, high ATP (200 μM ATP, 5 nM HPK1), read-out: Biochemical Potency (high ATP)
[5] = pSLP76 (Ser376) AlphaLISA, anti-CD3 activated Jurkat cells

Chain of HPK1 (Q92918 whole entry, species assumed): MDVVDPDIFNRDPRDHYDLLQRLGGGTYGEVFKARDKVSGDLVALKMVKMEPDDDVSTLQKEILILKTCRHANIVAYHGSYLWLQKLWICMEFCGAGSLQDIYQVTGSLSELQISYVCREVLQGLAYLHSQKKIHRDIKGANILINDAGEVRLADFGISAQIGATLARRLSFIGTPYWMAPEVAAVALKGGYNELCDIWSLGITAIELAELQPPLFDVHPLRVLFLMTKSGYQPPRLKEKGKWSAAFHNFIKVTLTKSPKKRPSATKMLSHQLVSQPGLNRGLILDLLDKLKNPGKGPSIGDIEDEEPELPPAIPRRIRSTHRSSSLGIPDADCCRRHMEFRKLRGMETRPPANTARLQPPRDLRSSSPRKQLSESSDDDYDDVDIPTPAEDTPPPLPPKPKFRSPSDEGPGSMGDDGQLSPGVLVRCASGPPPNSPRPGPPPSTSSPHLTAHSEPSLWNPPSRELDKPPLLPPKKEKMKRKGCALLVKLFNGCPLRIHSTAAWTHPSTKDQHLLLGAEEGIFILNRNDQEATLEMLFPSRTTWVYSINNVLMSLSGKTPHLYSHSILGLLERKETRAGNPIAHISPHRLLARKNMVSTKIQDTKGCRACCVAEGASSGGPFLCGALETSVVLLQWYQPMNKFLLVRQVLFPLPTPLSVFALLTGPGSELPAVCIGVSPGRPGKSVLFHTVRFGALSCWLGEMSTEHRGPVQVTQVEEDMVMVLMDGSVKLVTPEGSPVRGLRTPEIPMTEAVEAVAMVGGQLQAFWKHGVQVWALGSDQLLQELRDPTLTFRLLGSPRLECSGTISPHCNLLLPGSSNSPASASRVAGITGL

IC50 (HPK1; [2]) | IC50 [1, 3] | IC50 (HPK1; [4]) | IC50 [1, 5] | Structure (SMILES)
< 100 nM | 1000 to 5000 nM |  |  | Cc1cccnc1-c1nc2cc(Nc3cccc(N4CCNC5CC54)n3)ncc2s1 (stereo not drawn) [Example 87, 6-{2,5-Diazabicyclo[4.1.0]heptan-2-yl}-N-[2-(3-methylpyridin-2-yl)-[1,3]thiazolo[5,4-c]pyridin-6-yl]pyridin-2-amine]
 |  | < 100 nM | 100 to 1000 nM | CCN1C[C@@H]2C[C@H]1CN2c1nc(C)cc(Nc2cc3nc(-c4cccc(COC5CC5)c4)sc3cn2)n1 [Example 567]
 |  | < 100 nM | 100 to 1000 nM | CCN1C[C@@H]2C[C@H]1CN2c1nc(C)cc(Nc2cc3nc(-c4cc(Cl)cc(C(=O)N(C)C)c4)sc3cn2)n1 [Example 519]
 |  | < 100 nM | 100 to 1000 nM | CC(=O)N1CCn2ncc(-c3nc4cc(Nc5cc(C)nc(N6C[C@@H]7C[C@H]6CN7C)n5)ncc4s3)c2C1 [Example 569]
 |  | < 100 nM | 5000 to 25000 nM | Cc1cc(Nc2cc3nc(-c4cccc5c4CN(C)C5=O)sc3cn2)nc(N2C[C@@H]3C[C@H]2CN3C)n1 [Example 400]
 |  | < 100 nM | < 100 nM | Cc1cc(Nc2cc3nc(-c4cncc(-c5ncccc5C)c4)sc3cn2)nc(N2C[C@@H]3C[C@H]2CN3CCO)n1 [Example 318, 2-[(1S,4S)-5-{6-methyl-4-[2-(3-methyl-2,3′-bipyridyl-5′-yl)-3-thia-1,5-diaza-6-indenylamino]-2-pyrimidinyl}-2,5-diazabicyclo[2.2.1]hept-2-yl]ethanol]
< 100 nM | 100 to 1000 nM |  |  | Cc1cccc(F)c1-c1nc2cc(Nc3ccc(N4CCOCC4)c(CN(C)C)n3)ncc2s1 [Example 14, 6-[(Dimethylamino)methyl]-N-[2-(2-fluoro-6-methylphenyl)-[1,3]thiazolo[5,4-c]pyridin-6-yl]-5-(morpholin-4-yl)pyridin-2-amine]
< 100 nM | 1000 to 5000 nM |  |  | Cc1cc(NCc2nccn2C)nc(Nc2cc3nc(-c4ccnc(C)c4)sc3cn2)c1 [Example 76, 4-Methyl-N2-[(1-methyl-1H-imidazol-2-yl)methyl]-N6-[2-(2-methylpyridin-4-yl)-[1,3]thiazolo[5,4-c]pyridin-6-yl]pyridine-2,6-diamine]
< 100 nM | > 5000 nM |  |  | CN1C[C@@H]2C[C@H]1CN2c1cccc(Nc2cc3nc(-c4cccc(C#N)c4)sc3cn2)n1 [Example 133, 3-[6-({6-[(1S,4S)-5-Methyl-2,5-diazabicyclo[2.2.1]heptan-2-yl]pyridin-2-yl}amino)-[1,3]thiazolo[5,4-c]pyridin-2-yl]benzonitrile]
 |  | < 100 nM | 1000 to 5000 nM | Cc1cc(Nc2cc3nc(-c4cccc(S(=O)(=O)N5CCCCC5)c4)sc3cn2)nc(N2C[C@@H]3C[C@H]2CN3C)n1 [Example 367]
 |  | < 100 nM | 100 to 1000 nM | Cc1cc(Nc2cc3nc(-c4cnn(CS(C)(=O)=O)c4)sc3cn2)nc(N2C[C@@H]3C[C@H]2CN3C)n1 [Example 378]
 |  | < 100 nM | 100 to 1000 nM | CCN1C[C@@H]2C[C@H]1CN2c1nc(C)cc(Nc2cc3nc(-c4cncc(N[C@H](C)c5ccccc5)c4)sc3cn2)n1 [Example 471]
 |  | < 100 nM | < 100 nM | CCN1C[C@@H]2C[C@H]1CN2c1nc(C)cc(Nc2cc3nc(-c4cccc(C(=O)N5CCC[C@H](C)C5)c4)sc3cn2)n1 [Example 512]
 |  | < 100 nM | < 100 nM | Cc1cc(Nc2cc3nc(-c4cccc(C(=O)N(C)[C@@H](C)CO)c4)sc3cn2)nc(N2C[C@@H]3C[C@H]2CN3CC2CC2)n1 [Example 560]
 |  | < 100 nM | 1000 to 5000 nM | Cc1cc(Nc2cc3nc(-c4cccc(C5CCOCC5)c4)sc3cn2)nc(N2C[C@@H]3C[C@H]2CN3C)n1 [Example 404]
< 100 nM | 100 to 1000 nM |  |  | Cc1ccc(Nc2cc3nc(-c4cnn(CCC(N)=O)c4)sc3cn2)nc1CN1CCCC1 [Example 37, 3-{4-[6-({5-Methyl-6-[(pyrrolidin-1-yl)methyl]pyridin-2-yl}amino)-[1,3]thiazolo[5,4-c]pyridin-2-yl]-1H-pyrazol-1-yl}propanamide]
 |  | < 100 nM | 100 to 1000 nM | CCN1C[C@@H]2C[C@H]1CN2c1nc(C)cc(Nc2cc3nc(O[C@H](C)c4c(Cl)ccc(F)c4Cl)sc3cn2)n1 [Example 485]

IC50 (HPK1; [2]) | IC50 [1, 3] | IC50 (HPK1; [4]) | IC50 [1, 5] | Structure (SMILES)
< 100 nM | 1000 to 5000 nM |  |  | CC(c1nc(Nc2cc3nc(-c4c(F)cccc4F)sc3cn2)ccc1N1CCOCC1)N(C)C (stereo not drawn) [Example 277, N-[2-(2,6-Difluorophenyl)-[1,3]thiazolo[5,4-c]pyridin-6-yl]-6-[1-(dimethylamino)ethyl]-5-(morpholin-4-yl)pyridin-2-amine]
 |  | < 100 nM | 100 to 1000 nM | CO[C@H]1CCN(c2cc(-c3nc4cc(Nc5cc(C)nc(N6C[C@@H]7C[C@H]6CN7CCO)n5)ncc4s3)ccn2)C1 [Example 454]
< 100 nM | 100 to 1000 nM |  |  | Cc1cccnc1-c1nc2cc(Nc3ccc(C4CCOC4)c(CN4CCCC4)n3)ncc2s1 (racemic) [Example 252, N-[2-(3-Methylpyridin-2-yl)-[1,3]thiazolo[5,4-c]pyridin-6-yl]-5-(oxolan-3-yl)-6-[(pyrrolidin-1-yl)methyl]pyridin-2-amine]
 |  | < 100 nM | 100 to 1000 nM | Cc1cc(Nc2cc3nc(-c4nncn4C)sc3cn2)nc(N2C[C@@H]3C[C@H]2CN3CCO)n1 [Example 299, 2-[(1S,4S)-5-(4-methyl-6-{[2-(4-methyl-4H-1,2,4-triazol-3-yl)-[1,3]thiazolo[5,4-c]pyridin-6-yl]amino}pyrimidin-2-yl)-2,5-diazabicyclo[2.2.1]heptan-2-yl]ethan-1-ol]
< 100 nM | 100 to 1000 nM |  |  | Cc1cccnc1-c1nc2cc(Nc3cccc(N4C[C@@H]5C[C@H]4CN5C)n3)ncc2s1 [Example 90, 6-[(1S,4S)-5-Methyl-2,5-diazabicyclo[2.2.1]heptan-2-yl]-N-[2-(3-methylpyridin-2-yl)-[1,3]thiazolo[5,4-c]pyridin-6-yl]pyridin-2-amine]
< 100 nM | 100 to 1000 nM |  |  | CN(C)Cc1nc(Nc2cc3nc(-c4cccnc4)sc3cn2)ccc1N1CCOCC1 [Example 6, 6-[(Dimethylamino)methyl]-5-(morpholin-4-yl)-N-[2-(pyridin-3-yl)-[1,3]thiazolo[5,4-c]pyridin-6-yl]pyridin-2-amine]
 |  | < 100 nM | 100 to 1000 nM | Cc1cc(Nc2cc3nc(-c4cccc(N5CC(F)C5)c4)sc3cn2)nc(N2C[C@@H]3C[C@H]2CN3C)n1 [Example 479]
 |  | < 100 nM | 100 to 1000 nM | CCN1C[C@@H]2C[C@H]1CN2c1nc(C)cc(Nc2cc3nc(-c4cccc(C(=O)N[C@H](C)c5ccccc5)c4)sc3cn2)n1 [Example 516]
 |  | < 100 nM | 100 to 1000 nM | CC(=O)N(C)c1cccc(-c2nc3cc(Nc4cc(C)nc(N5C[C@@H]6C[C@H]5CN6C)n4)ncc3s2)c1 [Example 396]
< 100 nM | 1000 to 5000 nM |  |  | Cc1cccnc1-c1nc2cc(Nc3ccc(C4CC4)c(CN4CCCC4)n3)ncc2s1 [Example 262, 5-Cyclopropyl-N-[2-(3-methylpyridin-2-yl)-[1,3]thiazolo[5,4-c]pyridin-6-yl]-6-[(pyrrolidin-1-yl)methyl]pyridin-2-amine]
< 100 nM | > 5000 nM |  |  | CC(C)n1cc(-c2nc3cc(Nc4ccc(N5CCOCC5)c(CN5CCCC5)n4)ncc3s2)cn1 [Example 23, 5-(Morpholin-4-yl)-N-{2-[1-(propan-2-yl)-1H-pyrazol-4-yl]-[1,3]thiazolo[5,4-c]pyridin-6-yl}-6-[(pyrrolidin-1-yl)methyl]pyridin-2-amine]
 |  | < 100 nM | 100 to 1000 nM | Cc1cc(Nc2cc3nc(-c4cccc(C(=O)N[C@H]5CCCOC5)c4)sc3cn2)nc(N2C[C@@H]3C[C@H]2CN3CCO)n1 [Example 541]
 |  | < 100 nM | < 100 nM | Cc1cc(Nc2cc3nc(-c4ccnc(C5(O)CCCC5)c4)sc3cn2)nc(N2C[C@@H]3C[C@H]2CN3C)n1 [Example 397]
 |  | < 100 nM | < 100 nM | Cc1cc(Nc2cc3nc(-c4cccc(C(=O)NC5CCCC5)c4)sc3cn2)nc(N2C[C@@H]3C[C@H]2CN3CCO)n1 [Example 545]
< 100 nM | 1000 to 5000 nM |  |  | c1ccc(-c2nc3cc(Nc4ccc(N5CCOCC5)c(CN5CCCC5)n4)ncc3s2)nc1 [Example 7, 5-(Morpholin-4-yl)-N-[2-(pyridin-2-yl)-[1,3]thiazolo[5,4-c]pyridin-6-yl]-6-[(pyrrolidin-1-yl)methyl]pyridin-2-amine]
< 100 nM | < 100 nM |  |  | Cc1cc(Nc2cc3nc(-c4cccnc4)sc3cn2)nc(O[C@H]2CCNC2)c1 [Example 167, 4-Methyl-N-[2-(pyridin-3-yl)-[1,3]thiazolo[5,4-c]pyridin-6-yl]-6-[(3S)-pyrrolidin-3-yloxy]pyridin-2-amine]
< 100 nM | 100 to 1000 nM |  |  | CN(C)Cc1nc(Nc2cc3nc(-c4c(F)cccc4C(F)(F)F)sc3cn2)ccc1N1CCOCC1 [Example 15, 6-[(Dimethylamino)methyl]-N-{2-[2-fluoro-6-(trifluoromethyl)phenyl]-[1,3]thiazolo[5,4-c]pyridin-6-yl}-5-(morpholin-4-yl)pyridin-2-amine]

Structure (SMILES) | IC50 (HPK1; [2]) | IC50 [1, 3] | IC50 (HPK1; [4]) | IC50 [1, 5]
Cc1cc(Nc2cc3nc(-c4ccnc(N5C6CCC5COC6)c4)sc3cn2)nc(N2C[C@@H]3C[C@H]2CN3CCO)n1 [Example 447] |  |  | < 100 nM | < 100 nM
Cc1ccc(Nc2cc3nc(-c4ncccc4C)sc3cn2)nc1CN1CCCC1 [Example 41, 5-Methyl-N-[2-(3-methylpyridin-2-yl)-[1,3]thiazolo[5,4-c]pyridin-6-yl]-6-[(pyrrolidin-1-yl)methyl]pyridin-2-amine] | < 100 nM | 1000 to 5000 nM |  | 
